According to article PMC8214221, “Sequence determinants in the cathelicidin LL-37 that promote inflammation via presentation of RNA to scavenger receptors” (The Journal of Biological Chemistry, 2021):
Residues, ends and D or L forms follow the SMILES beside them.

Experiments:
[1] = tested on: normal human epidermal keratinocytes (NHEKs); assay: LDH release cytotoxicity assay in keratinocytes; format: cell-based; settings: minimal concentration giving 50% LDH release by NHEKs
Method in brief: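 Normal human epidermal keratinocytes were exposed to LL-34 parent and alanine-substituted peptides. Cytotoxicity was read as LDH release in fresh culture supernatants after treatment, using a commercial kit, and reported as the minimal concentration showing toxicity.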

[2] = tested on: NHEKs, IL-6 secretion in response to U1 dsRNA; assay: IL-6 secretion ELISA in NHEKs; format: cell-based, human; settings: U1 dsRNA 2.5 μg/ml + peptide 2 μM, 18 h, n = 3
Description: (§1) Protein levels of human IL-6 were analyzed from cell supernatant with ELISA (n = 3). Corresponding MIC values of LL-34 peptides L1A–R34A against Staphylococcus aureus USA300 are shown in the heat map. B, human dermal endothelial cells (HDMECs) were treated with either U1 dsRNA (2.5 μg/ml) or a combination of U1 dsRNA (2.5 μg/ml) and LL-34 peptides (Pep 1–Pep 34 and Pep–parent LL-34) at 2 μM for 18 h. IL-6 ELISA results are shown (n = 3). Green bars denote loss of IL-6 protein secretion compared with parent control shown in red. C, helical wheel plot for LL-34. Amino acids with green circles denote specific residues where replacement with an alanine caused the loss of IL-6 secretion compared with parent LL-34 peptide in NHEKs cotreated with U1 dsRNA. D, in the helical wheel plot for LL-34, circled green amino acids indicate that a substitution caused a loss of vetting in HDMEC. E–H, NHEKs were treated with LL-34-parent peptide (LL-34-P), LL-34-F5A, LL-34-I24A, LL-34-F27A, and LL-34-L31A at 2 μM, either individually or in combination with U1 dsRNA (2.5 μg/ml) for 8 h. Gene expression of IL-6, IFNB1, TSLP, and CXCL10 was assessed with qRT-PCR. GAPDH was used as a reference gene (n = 3) (∗p < 0.05; ∗∗∗∗p < 0.0001). One way-ANOVA was used. IL-6, interleukin 6; LL-34, 34-amino acid peptide; MIC, minimum inhibitory concentration, ns, not significant.
We hypothesized that sequential replacement of each amino acid in LL-34 peptide with a neutral amino acid alanine might reveal the amino acid residues critical for its ability to induce inflammation in response to U1 dsRNA. First, we treated NHEKs and human dermal microvascular endothelial cells (HDMECs) with LL-34 parent peptide and each of the 34 mutants at 2 μM for 18 h and measured the secretion of interleukin 6 (IL-6) in the supernatant by ELISA (Fig. S1, A and B). […] We then treated both NHEKs and HDMECs with a combination of U1 dsRNA (2.5 μg/ml) and the LL-34 parent/mutant peptides at 2 μM for 18 h and measured IL-6 secretion (Fig. 1, A–C). […] A similar pattern of IL-6 release was observed when HDMECs were treated with the peptide library and U1 dsRNA (Fig. 1B).
Cell culture supernatant was frozen at −80 °C until use for analysis. ELISA was performed with sandwich ELISA kits (R&D Systems) and quantified on a Spectramax Absorbance reader (Molecular Biosystems). Data were analyzed with GraphPad.

[3] = tested on: NHEKs, IL6, IFNB1, TSLP, CXCL10 mRNA; assay: qRT-PCR gene expression in NHEKs; format: cell-based, human; settings: 18 h / 8 h (Fig. 1 legend), n = 3
Description: as §1
(§2) We further looked at mRNA abundance by quantitative RT-PCR (qRT-PCR) to evaluate gene expression for type 1 interferon IFNB1, chemokine CXCL10, and cytokines TSLP and IL6 in NHEKs treated with selected LL-34 parent, LL-34—F5A, I24A, F27A, and L31A—peptides either alone or in combination with U1 dsRNA for 18 h (Fig. 1, E–H).
RNA extracted from cells (Pure Link RNA Isolation Kit; Life Technologies) was quantified on the Nanodrop 2000/200C Spectrophotometer (Thermo Fisher Scientific). About 500 ng of purified RNA was used to synthesize complementary DNA with iScript cDNA Synthesis Kit (Bio-Rad). Predeveloped Taqman (Thermo Fisher Scientific) gene expression assays were used to evaluate mRNA transcript levels. Taqman cycling conditions were used as previously described ([9], [45]). All experiments were performed on a CFX96 system (Bio-Rad). Fold change relative to GAPDH was calculated using the Livak ΔΔCt method ([46]).

[4] = tested on: S. aureus strain USA300 and SA112, GAS; assay: Bacterial growth inhibition (OD600), Gram-positive strains; format: cell-based, Staphylococcus aureus; group A Streptococcus; settings: 0-50 µM overnight, OD 600, n = 3, S. aureus USA300, SA113 (SA112 in text)
Description: as §2
(§3) Methicillin-resistant S. aureus USA300 and methicillin-sensitive S. aureus SA113 (American Type Culture Collection 35556) were cultured in 3% tryptic soy broth overnight at 37 °C with shaking at 250 rpm. GAS M49 strain NZ131 was cultured in Todd Hewitt broth supplemented with 1% yeast extract overnight at 37 °C without shaking. E. coli R1 strain RS218 was cultured in LB broth overnight at 37 °C with shaking at 250 rpm. MIC values were determined using a round-bottom 96-well microdilution method with RPMI cell culture media (as a source of Ca^2+ and Mg^2+) supplemented with tryptic soy broth, Todd Hewitt broth/yeast extract, or LB to facilitate growth of the respective bacterial strains. Overnight bacterial cultures were subcultured into fresh broth and grown to midlate log phase indicated by an absorbance at 600 nm value between 0.8 and 1.0 for each bacterial strain. The absorbance was then normalized to provide a concentration of 1 × 10^7 colony-forming units/ml in RPMI medium. The LL-34 parent and alanine scan mutants were serially diluted into the 96-well microtiter plates containing prewarmed RPMI bacterial growth medium. A 10 μl aliquot of the midlate log phase bacteria was inoculated into the 96-well microtiter plates that contained 95 μl of RPMI medium with or without the LL-34 peptide dilutions and incubated for 16 to 18 h at […] with shaking at 200 rpm. Inhibition of growth was determined by measuring the absorbance at 600 nm readings of each well using a microplate reader (Infinite M200 Pro; Tecan). The MIC of each bacterial strain was determined by the lowest peptide concentration that inhibited more than 80% bacterial growth.
(§4) (A) NHEKs and HDMECs (B) were treated with LL34- parent peptide and all the 34 alanine substituted peptides (Pep L1A-Pep R34A) and LL37 at 2 µM for 16 h. IL-6 protein secretion was assessed with ELISA (n=3) (C-F) LL34-Parent, LL34 F5A, LL34 I24A, LL34 F27A, and LL34 L31A peptides were incubated with S. aureus USA 300, S. aureus SA113, Group A Streptococcus (GAS) and E. coli at increasing concentrations (0-50 µM) overnight, and bacterial culture growth was assayed as absorbance at OD 600 (n=3).

Escherichia coli = assay: Bacterial growth inhibition (OD600), E. coli; format: cell-based; settings: 0-50 µM overnight, OD 600, n = 3
Description: as §2, §3, §4

[5] = tested on: methicillin-resistant Staphylococcus aureus strain USA300; format: cell-based; settings: MIC comparison with parent (MIC 25 μM); 18 h
From the text: Since LL-34 was the minimal truncation mutant of LL-37 that retained both antimicrobial and immune modulatory activity, we prepared a series of synthetic peptides with sequential substitutions of alanine at each amino acid position of the LL-34 parent peptide (Table 1). We compared the minimum inhibitory concentration (MIC) for the LL-34 parent peptide and the alanine mutants (LL-34 peptides—L1A and R34A) against methicillin-resistant Staphylococcus aureus strain USA300 (Fig. 1A). LL-34 peptides were incubated at concentrations of 0 to 100 μM with bacteria. The minimal concentration at which no growth was observed was noted after 18 h of incubation. […] Because of these changes in the MIC against S. aureus between the mutants, we investigated the effective toxicity profile of the peptides in normal human epidermal keratinocytes (NHEKs) by lactate dehydrogenase (LDH) release assay (Table 1). […] Most other peptides were cytotoxic at a minimal concentration of 10 μM, whereas LL-34—K15A was toxic at a concentration of 2.5 μM.
as §3

Compound | Minimal cytotoxic concentration in NHEK (LD50) [1] | IL-6 protein secretion, cotreatment with U1 dsRNA, vs U1 dsRNA + LL-34 parent [2] | Gene expression of IL6, IFNB1, and CXCL10, cotreatment with U1 dsRNA ([3]; U1 dsRNA 2.5 μg/ml + peptide 2 μM) | Gene expression of TSLP, peptide alone ([3]; peptide 2 μM alone, GAPDH reference) | Basal expression of IL6, IFNB1, and CXCL10, peptide alone ([3]; peptide 2 μM alone) | Capacity to inhibit growth of Gram-positive bacteria [4] | Action against Gram-negative E. coli (Escherichia coli) | Antimicrobial potency against S. aureus USA300 compared with LL-34 parent peptide [5]
CC[C@H](C)[C@H](NC(=O)[C@H](CCCCN)NC(=O)[C@H](CCC(=O)O)NC(=O)[C@H](CCCCN)NC(=O)[C@H](CO)NC(=O)[C@H](CCCCN)NC(=O)[C@H](CCCNC(=N)N)NC(=O)[C@H](Cc1ccccc1)NC(=O)[C@H](C)NC(=O)[C@H](CC(=O)O)NC(=O)CNC(=O)[C@H](CC(C)C)NC(=O)[C@@H](N)CC(C)C)C(=O)NCC(=O)N[C@@H](CCCCN)C(=O)N[C@@H](CCC(=O)O)C(=O)N[C@@H](Cc1ccccc1)C(=O)N[C@@H](CCCCN)C(=O)N[C@@H](CCCNC(=N)N)C(=O)N[C@H](C(=O)N[C@H](C(=O)N[C@@H](CCC(N)=O)C(=O)N[C@@H](CCCNC(=N)N)C(=O)N[C@H](C(=O)N[C@@H](CCCCN)C(=O)N[C@@H](CC(=O)O)C(=O)N[C@@H](Cc1ccccc1)C(=O)N[C@@H](CC(C)C)C(=O)N[C@@H](CCCNC(=N)N)C(=O)N[C@@H](CC(N)=O)C(=O)N[C@@H](CC(C)C)C(=O)N[C@H](C(=O)N1CCC[C@H]1C(=O)N[C@@H](CCCNC(=N)N)C(=O)O)C(C)C)[C@@H](C)CC)C(C)C)[C@@H](C)CC [LL-34—F5A] (H-LLGDAFRKSKEKIGKEFKRIVQRIKDFLRNLVPR-OH) | 10 µM | reduced secretion of IL-6 protein | reduction in gene expression | increased gene expression of TSLP | not affected | increased capacity to inhibit growth of most of the tested Gram-positive bacteria | little action | –
CC[C@H](C)[C@H](NC(=O)[C@H](C)NC(=O)[C@H](CCC(=O)O)NC(=O)[C@H](CCCCN)NC(=O)[C@H](CO)NC(=O)[C@H](CCCCN)NC(=O)[C@H](CCCNC(=N)N)NC(=O)[C@H](Cc1ccccc1)NC(=O)[C@H](Cc1ccccc1)NC(=O)[C@H](CC(=O)O)NC(=O)CNC(=O)[C@H](CC(C)C)NC(=O)[C@@H](N)CC(C)C)C(=O)NCC(=O)N[C@@H](CCCCN)C(=O)N[C@@H](CCC(=O)O)C(=O)N[C@@H](Cc1ccccc1)C(=O)N[C@@H](CCCCN)C(=O)N[C@@H](CCCNC(=N)N)C(=O)N[C@H](C(=O)N[C@H](C(=O)N[C@@H](CCC(N)=O)C(=O)N[C@@H](CCCNC(=N)N)C(=O)N[C@H](C(=O)N[C@@H](CCCCN)C(=O)N[C@@H](CC(=O)O)C(=O)N[C@@H](Cc1ccccc1)C(=O)N[C@@H](CC(C)C)C(=O)N[C@@H](CCCNC(=N)N)C(=O)N[C@@H](CC(N)=O)C(=O)N[C@@H](CC(C)C)C(=O)N[C@H](C(=O)N1CCC[C@H]1C(=O)N[C@@H](CCCNC(=N)N)C(=O)O)C(C)C)[C@@H](C)CC)C(C)C)[C@@H](C)CC [LL-34—K12A] (H-LLGDFFRKSKEAIGKEFKRIVQRIKDFLRNLVPR-OH) | 5 µM | reduced secretion of IL-6 protein | – | – | – | – | – | reduced MIC compared with the parent peptide
CC[C@H](C)[C@H](NC(=O)[C@H](CCCCN)NC(=O)[C@H](CCC(=O)O)NC(=O)[C@H](CCCCN)NC(=O)[C@H](CO)NC(=O)[C@H](CCCCN)NC(=O)[C@H](CCCNC(=N)N)NC(=O)[C@H](Cc1ccccc1)NC(=O)[C@H](Cc1ccccc1)NC(=O)[C@H](CC(=O)O)NC(=O)CNC(=O)[C@H](CC(C)C)NC(=O)[C@@H](N)CC(C)C)C(=O)NCC(=O)N[C@@H](CCCCN)C(=O)N[C@@H](CCC(=O)O)C(=O)N[C@@H](Cc1ccccc1)C(=O)N[C@@H](CCCCN)C(=O)N[C@@H](CCCNC(=N)N)C(=O)N[C@H](C(=O)N[C@H](C(=O)N[C@@H](CCC(N)=O)C(=O)N[C@@H](CCCNC(=N)N)C(=O)N[C@H](C(=O)N[C@@H](CCCCN)C(=O)N[C@@H](CC(=O)O)C(=O)N[C@@H](Cc1ccccc1)C(=O)N[C@@H](C)C(=O)N[C@@H](CCCNC(=N)N)C(=O)N[C@@H](CC(N)=O)C(=O)N[C@@H](CC(C)C)C(=O)N[C@H](C(=O)N1CCC[C@H]1C(=O)N[C@@H](CCCNC(=N)N)C(=O)O)C(C)C)[C@@H](C)CC)C(C)C)[C@@H](C)CC [LL-34—L28A] (H-LLGDFFRKSKEKIGKEFKRIVQRIKDFARNLVPR-OH) | 5 µM | reduced secretion of IL-6 protein | – | – | – | – | – | killed S. aureus USA300 more potently
